# Experimental data reported in patent US20260001892A1, “COMPOUND FOR REGULATING AND CONTROLLING ACTIVITY OF 15-PGDH AND PREPARATION METHOD THEREFOR” (SCINNOHUB PHARMACEUTICAL CO., LTD., priority 2022, published 2026).
# Molecular target: 15-PGDH (Homo sapiens (Human), UniProt P15428)
# Experiment: Detection of activity of 15-PGDH enzyme
# Assay type: biochemical
# Conditions: inhibitory activity against 15-PGDH enzyme; substrates β-NAD and PGF2α; fluorescence Ex/Em=340/450
# Procedure: • a. A solution of pH 7.5 containing 50 mM Tris-HCl, 0.01% Tween 20 was prepared with ultrapure water as a reaction buffer; • b. A 10 mM mother liquor of the compound to be tested was prepared with DMSO, and then the reaction buffer was used to dilute the mother liquor of the compound to be tested to obtain solution 1 of the compound to be tested at a concentration of 40,000 nM, and then the solution 1 of the compound to be tested was serially diluted into solutions 2-9 (or 2-12) of the compound to be tested at 9 (or 11) concentrations with a gradient difference of three-fold. 5 μL of each concentration of solutions of the compound to be tested was respectively taken and added into a 384-well plate as test wells; • c. 5 μL of the reaction buffer was then added to the blank wells of the 384-well plate as positive control and blank control wells, respectively; • d. The reaction buffer was used to prepare a 15-PGDH protein solution at a concentration of 5 ng/μL, 5 μL of the 15-PGDH protein solution was taken and added to the test wells and positive control wells, and meanwhile 5 μL of the reaction buffer was added to the blank control wells, then the plate was centrifuged at 2000 rpm for 30 seconds; • e. The reaction buffer was used to prepare 5 mM $3-NAD and 2 mM PGF2α, respectively, which were mixed at 1:1 by volume to obtain a substrate mixture, 10 μL of the substrate mixture was taken and added to the test wells, positive control wells and blank control wells to start the reaction; • f. The fluorescence signal value (Ex/Em=340/450) of each well was detected continuously by using a multifunctional microplate reader.
# • a) Continuous fluorescence signal values were analyzed by using the “kinetic calculations-slope calculation method” in the PHERAstar Data analysis software to obtain the slope of each test well; • b) The inhibition rate % was calculated by using the following formula: inhibition rate %=[1−(slope of test well-signal value of positive control well)/(signal value of blank control well-average signal value of positive control well)]×100%. • c) Calculation of IC50 and plotting of inhibition rate-dose curves: IC50 values were calculated by fitting compound concentrations and corresponding inhibition rates with a nonlinear regression (dose response-variable slope) via using GraphPad Prism 6.0. The formula was shown below:
# Y=Bottom+(Top−Bottom)/(1+10^((Log IC50−X)*HillSlope)), wherein X is a log value of a concentration of the compound, and Y is inhibition rate %.
# 15-PGDH, sequence (P15428 whole entry): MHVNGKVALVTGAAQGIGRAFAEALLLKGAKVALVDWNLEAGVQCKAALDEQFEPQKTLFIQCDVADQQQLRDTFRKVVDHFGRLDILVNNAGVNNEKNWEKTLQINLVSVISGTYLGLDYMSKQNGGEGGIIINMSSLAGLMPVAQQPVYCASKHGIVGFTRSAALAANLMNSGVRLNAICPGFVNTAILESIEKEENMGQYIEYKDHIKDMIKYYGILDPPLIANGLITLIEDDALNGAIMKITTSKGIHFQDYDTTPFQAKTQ
row,IC50 [nM],Compound
1,< 3,"O=C(c1sc2nc(-c3ccccc3)cnc2c1C1CC1)N1CCCCC1 [Example 1, (7-cyclopropyl-3-phenylthieno[2,3-b]pyrazin-6-yl)(piperidin-1-yl)methanone]"
2,3 to 10,"Cc1cc(-c2cnc3c(C4CC4)c(C(=O)N4CCCCC4)sc3n2)ccn1 [Example 2, (7-cyclopropyl-3-(2-methylpyridin-4-yl)thieno[2,3-b]pyrazin-6-yl)(piperidin-1-yl)methanone]"
3,< 3,O=C(c1sc2nc(-c3cnc(N4CCOCC4)nc3)cnc2c1C1CC1)N1CCCCC1 [Example 3]
4,3 to 10,O=C(c1sc2nc(-c3ccnc(F)c3)cnc2c1C1CC1)N1CCCCC1 [Example 4]
5,< 3,COc1ncc(-c2cnc3c(C4CC4)c(C(=O)N4CCCCC4)sc3n2)cn1 [Example 5]
6,3 to 10,O=C(c1sc2nc(-c3cccnc3)cnc2c1C1CC1)N1CCCCC1 [Example 7]
7,3 to 10,Cc1noc(C)c1-c1cnc2c(C3CC3)c(C(=O)N3CCCCC3)sc2n1 [Example 8]
8,3 to 10,O=C(c1sc2nc(-c3ccncc3)cnc2c1C1CC1)N1CCCCC1 [Example 9]
9,3 to 10,Cn1cc(-c2cnc3c(C4CC4)c(C(=O)N4CCCCC4)sc3n2)cn1 [Example 10]
10,10 to 20,N#Cc1ccc(-c2cnc3c(C4CC4)c(C(=O)N4CCCCC4)sc3n2)cn1 [Example 11]
11,< 3,O=C(c1sc2nc(-c3ccc4nccn4c3)cnc2c1C1CC1)N1CCCCC1 [Example 12]
12,3 to 10,O=C(c1sc2nc(-c3ccc4ncsc4c3)cnc2c1C1CC1)N1CCCCC1 [Example 13]
13,3 to 10,O=C(c1sc2nc(-c3ccc4c(c3)OCO4)cnc2c1C1CC1)N1CCCCC1 [Example 14]
14,10 to 20,O=C(c1sc2nc(-c3c[nH]c4ccccc34)cnc2c1C1CC1)N1CCCCC1 [Example 16]
15,3 to 10,O=C(c1sc2nc(-c3cccs3)cnc2c1C1CC1)N1CCCCC1 [Example 17]
16,< 3,Cn1cc(-c2cnc3c(C4CC4)c(C(=O)N4CCCCC4)sc3n2)ccc1=O [Example 18]
17,3 to 10,O=C(c1sc2nc(-c3ccc(N4CCOCC4)nc3)cnc2c1C1CC1)N1CCCCC1 [Example 19]
18,3 to 10,O=C(c1sc2nc(-c3ccc4nccnc4c3)cnc2c1C1CC1)N1CCCCC1 [Example 20]
19,3 to 10,O=C(c1sc2nc(-c3ccc4c(c3)OCCO4)cnc2c1C1CC1)N1CCCCC1 [Example 21]

row,IC50 [nM],Compound
1,< 3,O=C(c1sc2nc(-c3cncnc3)cnc2c1C1CC1)N1CCCCC1 [Example 22]
2,10 to 20,COc1ccc(-c2cnc3c(C4CC4)c(C(=O)N4CCCCC4)sc3n2)cn1 [Example 23]
3,< 3,Cc1ccc(-c2cnc3c(C4CC4)c(C(=O)N4CCCCC4)sc3n2)cn1 [Example 24]
4,10 to 20,O=C(c1sc2nc(-c3ccnc(C(F)(F)F)c3)cnc2c1C1CC1)N1CCCCC1 [Example 25]
5,< 3,COc1cc(-c2cnc3c(C4CC4)c(C(=O)N4CCCCC4)sc3n2)ccn1 [Example 26]
6,3 to 10,O=C(c1sc2nc(-c3ccc(F)nc3)cnc2c1C1CC1)N1CCCCC1 [Example 27]
7,3 to 10,Nc1cc(-c2cnc3c(C4CC4)c(C(=O)N4CCCCC4)sc3n2)ccn1 [Example 28]
8,3 to 10,O=C(c1sc2nc(-c3cncs3)cnc2c1C1CC1)N1CCCCC1 [Example 29]
9,3 to 10,CN(C)c1ncc(-c2cnc3c(C4CC4)c(C(=O)N4CCCCC4)sc3n2)cn1 [Example 30]
10,< 3,Nc1ncc(-c2cnc3c(C4CC4)c(C(=O)N4CCCCC4)sc3n2)cn1 [Example 31]
11,< 3,CN1Cc2cc(-c3cnc4c(C5CC5)c(C(=O)N5CCCCC5)sc4n3)ccc2C1=O [Example 32]
12,10 to 20,"N#Cc1c(C(=O)N2CCCCC2)sc2nc(-c3ccccc3)cnc12 [Example 33, 3-phenyl-6-(piperidine-1-carbonyl)thieno[2,3-b]pyrazine-7-carbonitrile]"
13,10 to 20,"COc1ncc(-c2cnc3c(C#N)c(C(=O)N4CCCCC4)sc3n2)cn1 [Example 34, 3-(2-methoxypyrimidin-5-yl)-6-(piperidine-1-carbonyl)thieno[2,3-b]pyrazine-7-carbonitrile]"
14,10 to 20,N#Cc1c(C(=O)N2CCCCC2)sc2nc(-c3ccc(N4CCOCC4)nc3)cnc12 [Example 43]
15,3 to 10,N#Cc1c(C(=O)N2CCCCC2)sc2nc(-c3ccc4nccnc4c3)cnc12 [Example 45]
16,3 to 10,N#Cc1c(C(=O)N2CCCCC2)sc2nc(-c3ccc4nccn4c3)cnc12 [Example 47]
17,3 to 10,N#Cc1c(C(=O)N2CCCCC2)sc2nc(-c3ccc4ncsc4c3)cnc12 [Example 48]
18,10 to 20,COc1ccc(-c2cnc3c(C#N)c(C(=O)N4CCCCC4)sc3n2)cn1 [Example 50]
19,10 to 20,Cc1ccc(-c2cnc3c(C#N)c(C(=O)N4CCCCC4)sc3n2)cn1 [Example 51]

row,IC50 [nM],Compound
1,10 to 20,COc1cc(-c2cnc3c(C#N)c(C(=O)N4CCCCC4)sc3n2)ccn1 [Example 55]
2,3 to 10,N#Cc1c(C(=O)N2CCCCC2)sc2nc(-c3cncs3)cnc12 [Example 56]
3,3 to 10,Cc1cc(-c2cnc3c(C#N)c(C(=O)N4CCCCC4)sc3n2)ccn1 [Example 57]
4,3 to 10,CN(C)c1ncc(-c2cnc3c(C#N)c(C(=O)N4CCCCC4)sc3n2)cn1 [Example 58]
5,3 to 10,N#Cc1c(C(=O)N2CCCCC2)sc2nc(-c3cnc(N4CCOCC4)nc3)cnc12 [Example 59]
6,3 to 10,N#Cc1c(C(=O)N2CCCCC2)sc2nc(-c3cnc(N)nc3)cnc12 [Example 60]
7,3 to 10,N#Cc1c(C(=O)N2CCCCC2)sc2nc(-c3cncnc3)cnc12 [Example 61]
8,3 to 10,CN1Cc2cc(-c3cnc4c(C#N)c(C(=O)N5CCCCC5)sc4n3)ccc2C1=O [Example 62]
9,3 to 10,"O=C(c1sc2nc(-c3ccccc3)cnc2c1C(F)(F)F)N1CCCCC1 [Example 63, (3-phenyl-7-(trifluoromethyl)thieno[2,3-b]pyrazin-6-yl)(piperidin-1-yl)methanone]"
10,3 to 10,"COc1ncc(-c2cnc3c(C(F)(F)F)c(C(=O)N4CCCCC4)sc3n2)cn1 [Example 64, (3-(2-methoxypyrimidin-5-yl)-7-(trifluoromethyl)thieno[2,3-b]pyrazin-6-yl)(piperidin-1-yl)methanone]"
11,3 to 10,O=C(c1sc2nc(-c3ccnc(F)c3)cnc2c1C(F)(F)F)N1CCCCC1 [Example 65]
12,10 to 20,N#Cc1ccc(-c2cnc3c(C(F)(F)F)c(C(=O)N4CCCCC4)sc3n2)cn1 [Example 67]
13,3 to 10,Cn1cc(-c2cnc3c(C(F)(F)F)c(C(=O)N4CCCCC4)sc3n2)cn1 [Example 68]
14,< 3,O=C(c1sc2nc(-c3cccs3)cnc2c1C(F)(F)F)N1CCCCC1 [Example 69]
15,10 to 20,Cc1noc(C)c1-c1cnc2c(C(F)(F)F)c(C(=O)N3CCCCC3)sc2n1 [Example 70]
16,3 to 10,Cn1cc(-c2cnc3c(C(F)(F)F)c(C(=O)N4CCCCC4)sc3n2)ccc1=O [Example 71]
17,3 to 10,O=C(c1sc2nc(-c3ccncc3)cnc2c1C(F)(F)F)N1CCCCC1 [Example 72]
18,< 3,O=C(c1sc2nc(-c3cccnc3)cnc2c1C(F)(F)F)N1CCCCC1 [Example 74]
19,10 to 20,O=C(c1sc2nc(-c3ccc4c(c3)OCCO4)cnc2c1C(F)(F)F)N1CCCCC1 [Example 76]
